Laboratory results: BigSolDB 2.1

O=C(O)c1cccc(O)c1
solubility (mole fraction) (in acetone, 278.15 K): 0.101 | solubility (mole fraction) (in acetone, 283.15 K): 0.107 | solubility (mole fraction) (in acetone, 288.15 K): 0.111 | solubility (mole fraction) (in acetone, 293.15 K): 0.116 | solubility (mole fraction) (in acetone, 298.15 K): 0.122 | solubility (mole fraction) (in acetone, 303.15 K): 0.128 | solubility (mole fraction) (in acetone, 308.15 K): 0.134 | solubility (mole fraction) (in acetone, 313.15 K): 0.142 | solubility (mole fraction) (in acetone, 318.15 K): 0.151 | solubility (mole fraction) (in acetone, 323.15 K): 0.159 | solubility (mole fraction) (in acetonitrile, 278.15 K): 0.00646 | solubility (mole fraction) (in acetonitrile, 283.15 K): 0.00759 | solubility (mole fraction) (in acetonitrile, 288.15 K): 0.0103 | solubility (mole fraction) (in acetonitrile, 293.15 K): 0.0116 | solubility (mole fraction) (in acetonitrile, 298.15 K): 0.0132 | solubility (mole fraction) (in acetonitrile, 303.15 K): 0.0155 | solubility (mole fraction) (in acetonitrile, 308.15 K): 0.017 | solubility (mole fraction) (in acetonitrile, 313.15 K): 0.0199 | solubility (mole fraction) (in acetonitrile, 318.15 K): 0.0228 | solubility (mole fraction) (in acetonitrile, 323.15 K): 0.0262 | solubility (mole fraction) (in ethanol, 278.15 K): 0.0936 | solubility (mole fraction) (in ethanol, 283.15 K): 0.0968 | solubility (mole fraction) (in ethanol, 288.15 K): 0.101 | solubility (mole fraction) (in ethanol, 293.15 K): 0.106 | solubility (mole fraction) (in ethanol, 298.15 K): 0.112 | solubility (mole fraction) (in ethanol, 303.15 K): 0.116 | solubility (mole fraction) (in ethanol, 308.15 K): 0.121 | solubility (mole fraction) (in ethanol, 313.15 K): 0.127 | solubility (mole fraction) (in ethanol, 318.15 K): 0.134 | solubility (mole fraction) (in ethanol, 323.15 K): 0.147 | solubility (mole fraction) (in ethyl acetate, 278.15 K): 0.0377 | solubility (mole fraction) (in ethyl acetate, 283.15 K): 0.041 | solubility (mole fraction) (in ethyl acetate, 288.15 K): 0.0441 | solubility (mole fraction) (in ethyl acetate, 293.15 K): 0.0486 | solubility (mole fraction) (in ethyl acetate, 298.15 K): 0.0534 | solubility (mole fraction) (in ethyl acetate, 303.15 K): 0.0565 | solubility (mole fraction) (in ethyl acetate, 308.15 K): 0.0607 | solubility (mole fraction) (in ethyl acetate, 313.15 K): 0.0682 | solubility (mole fraction) (in ethyl acetate, 318.15 K): 0.0742 | solubility (mole fraction) (in ethyl acetate, 323.15 K): 0.0764 | solubility (mole fraction) (in ethylene glycol, 278.15 K): 0.0804 | solubility (mole fraction) (in ethylene glycol, 283.15 K): 0.0829 | solubility (mole fraction) (in ethylene glycol, 288.15 K): 0.0847 | solubility (mole fraction) (in ethylene glycol, 293.15 K): 0.0883 | solubility (mole fraction) (in ethylene glycol, 298.15 K): 0.0959 | solubility (mole fraction) (in ethylene glycol, 303.15 K): 0.102 | solubility (mole fraction) (in ethylene glycol, 308.15 K): 0.109 | solubility (mole fraction) (in ethylene glycol, 313.15 K): 0.116 | solubility (mole fraction) (in ethylene glycol, 318.15 K): 0.124 | solubility (mole fraction) (in ethylene glycol, 323.15 K): 0.136 | solubility (mole fraction) (in isopropanol, 278.15 K): 0.0984 | solubility (mole fraction) (in isopropanol, 283.15 K): 0.104 | solubility (mole fraction) (in isopropanol, 288.15 K): 0.109 | solubility (mole fraction) (in isopropanol, 293.15 K): 0.114 | solubility (mole fraction) (in isopropanol, 298.15 K): 0.121 | solubility (mole fraction) (in isopropanol, 303.15 K): 0.127 | solubility (mole fraction) (in isopropanol, 308.15 K): 0.134 | solubility (mole fraction) (in isopropanol, 313.15 K): 0.14 | solubility (mole fraction) (in isopropanol, 318.15 K): 0.148 | solubility (mole fraction) (in isopropanol, 323.15 K): 0.155 | solubility (mole fraction) (in isopropyl acetate, 278.15 K): 0.0305 | solubility (mole fraction) (in isopropyl acetate, 283.15 K): 0.0337 | solubility (mole fraction) (in isopropyl acetate, 288.15 K): 0.0365 | solubility (mole fraction) (in isopropyl acetate, 293.15 K): 0.0383 | solubility (mole fraction) (in isopropyl acetate, 298.15 K): 0.043 | solubility (mole fraction) (in isopropyl acetate, 303.15 K): 0.0465 | solubility (mole fraction) (in isopropyl acetate, 308.15 K): 0.0507 | solubility (mole fraction) (in isopropyl acetate, 313.15 K): 0.0552 | solubility (mole fraction) (in isopropyl acetate, 318.15 K): 0.059 | solubility (mole fraction) (in isopropyl acetate, 323.15 K): 0.0618 | solubility (mole fraction) (in methanol, 278.15 K): 0.0815 | solubility (mole fraction) (in methanol, 283.15 K): 0.0856 | solubility (mole fraction) (in methanol, 288.15 K): 0.0895 | solubility (mole fraction) (in methanol, 293.15 K): 0.0943 | solubility (mole fraction) (in methanol, 298.15 K): 0.0995 | solubility (mole fraction) (in methanol, 303.15 K): 0.105 | solubility (mole fraction) (in methanol, 308.15 K): 0.11 | solubility (mole fraction) (in methanol, 313.15 K): 0.117 | solubility (mole fraction) (in methanol, 318.15 K): 0.124 | solubility (mole fraction) (in methanol, 323.15 K): 0.13 | solubility (mole fraction) (in methyl acetate, 278.15 K): 0.0388 | solubility (mole fraction) (in methyl acetate, 283.15 K): 0.0435 | solubility (mole fraction) (in methyl acetate, 288.15 K): 0.048 | solubility (mole fraction) (in methyl acetate, 293.15 K): 0.0502 | solubility (mole fraction) (in methyl acetate, 298.15 K): 0.0549 | solubility (mole fraction) (in methyl acetate, 303.15 K): 0.0577 | solubility (mole fraction) (in methyl acetate, 308.15 K): 0.0631 | solubility (mole fraction) (in methyl acetate, 313.15 K): 0.0691 | solubility (mole fraction) (in methyl acetate, 318.15 K): 0.0764 | solubility (mole fraction) (in methyl acetate, 323.15 K): 0.0808 | solubility (mole fraction) (in n-butanol, 278.15 K): 0.0772 | solubility (mole fraction) (in n-butanol, 283.15 K): 0.0831 | solubility (mole fraction) (in n-butanol, 288.15 K): 0.0857 | solubility (mole fraction) (in n-butanol, 293.15 K): 0.0919 | solubility (mole fraction) (in n-butanol, 298.15 K): 0.0957 | solubility (mole fraction) (in n-butanol, 303.15 K): 0.102 | solubility (mole fraction) (in n-butanol, 308.15 K): 0.109 | solubility (mole fraction) (in n-butanol, 313.15 K): 0.115 | solubility (mole fraction) (in n-butanol, 318.15 K): 0.12 | solubility (mole fraction) (in n-butanol, 323.15 K): 0.125 | solubility (mole fraction) (in n-butyl acetate, 278.15 K): 0.0361 | solubility (mole fraction) (in n-butyl acetate, 283.15 K): 0.0397 | solubility (mole fraction) (in n-butyl acetate, 288.15 K): 0.043 | solubility (mole fraction) (in n-butyl acetate, 293.15 K): 0.0459 | solubility (mole fraction) (in n-butyl acetate, 298.15 K): 0.0486 | solubility (mole fraction) (in n-butyl acetate, 303.15 K): 0.0526 | solubility (mole fraction) (in n-butyl acetate, 308.15 K): 0.0564 | solubility (mole fraction) (in n-butyl acetate, 313.15 K): 0.0611 | solubility (mole fraction) (in n-butyl acetate, 318.15 K): 0.0661 | solubility (mole fraction) (in n-butyl acetate, 323.15 K): 0.0693 | solubility (mole fraction) (in n-pentanol, 278.15 K): 0.0774 | solubility (mole fraction) (in n-pentanol, 283.15 K): 0.0815 | solubility (mole fraction) (in n-pentanol, 288.15 K): 0.0852 | solubility (mole fraction) (in n-pentanol, 293.15 K): 0.0902 | solubility (mole fraction) (in n-pentanol, 298.15 K): 0.0951 | solubility (mole fraction) (in n-pentanol, 303.15 K): 0.101 | solubility (mole fraction) (in n-pentanol, 308.15 K): 0.106 | solubility (mole fraction) (in n-pentanol, 313.15 K): 0.113 | solubility (mole fraction) (in n-pentanol, 318.15 K): 0.118 | solubility (mole fraction) (in n-pentanol, 323.15 K): 0.125 | solubility (mole fraction) (in n-propanol, 278.15 K): 0.0827 | solubility (mole fraction) (in n-propanol, 283.15 K): 0.0878 | solubility (mole fraction) (in n-propanol, 288.15 K): 0.0949 | solubility (mole fraction) (in n-propanol, 293.15 K): 0.0975 | solubility (mole fraction) (in n-propanol, 298.15 K): 0.101 | solubility (mole fraction) (in n-propanol, 303.15 K): 0.108 | solubility (mole fraction) (in n-propanol, 308.15 K): 0.114 | solubility (mole fraction) (in n-propanol, 313.15 K): 0.121 | solubility (mole fraction) (in n-propanol, 318.15 K): 0.128 | solubility (mole fraction) (in n-propanol, 323.15 K): 0.133 | solubility (mole fraction) (in n-propyl acetate, 278.15 K): 0.0379 | solubility (mole fraction) (in n-propyl acetate, 283.15 K): 0.0434 | solubility (mole fraction) (in n-propyl acetate, 288.15 K): 0.0449 | solubility (mole fraction) (in n-propyl acetate, 293.15 K): 0.047 | solubility (mole fraction) (in n-propyl acetate, 298.15 K): 0.0513 | solubility (mole fraction) (in n-propyl acetate, 303.15 K): 0.0569 | solubility (mole fraction) (in n-propyl acetate, 308.15 K): 0.061 | solubility (mole fraction) (in n-propyl acetate, 313.15 K): 0.0651 | solubility (mole fraction) (in n-propyl acetate, 318.15 K): 0.0711 | solubility (mole fraction) (in n-propyl acetate, 323.15 K): 0.0769
